From patent US20250241313A1, “APPLICATION OF ACTIVE SUBSTANCE IN IMPROVING SEED VIGOR AND METHOD FOR IMPROVING SEED VIGOR” (HUNAN HYBRID RICE RESEARCH CENTER, priority 2024, published 2025)

Tests used:
Assay type in all cases: in vivo
[1] = test system: wheat seeds; assay: Wheat seed germination (seed vigor) after seed soaking; settings: for Average germination index / average germination potential / Average germination rate: wheat seeds soaked 24 hours in 0.3 mM aqueous solution; for average germination potential: first 5 days; for Average germination rate: within 7 days
Method: (§1) In the following examples, the relative activity index is calculated by the following formula: • (1) average germination rate: ×100% (total number of germinated seeds/total number of tested seeds within 7 days); • (2) average germination potential: ×100% (total number of germinated seeds/total number of tested seeds in the first 5 days); • (3) average germination index: Σ(number of sprouts per day/[…]); • (4) statistical P-value: generally, X represents the statistical quantity of the test, and when H0 is true, the value C of the statistical quantity can be calculated from the sample data, and the P value can be obtained from the specific distribution of the test statistical quantity X. Specifically, the P value of the left test is the probability that the test statistic X is smaller than the sample statistic C, i.e.: P=P {X<C} the P value for the right-side test is the probability that the test statistic X is greater than the sample statistic C: P=P {X>C} the P value of the two-sided test is 2 times the probability that the test statistic X falls within the tail region where the sample statistic C is an endpoint: P=2P {X>C} (when C is located at the right end of the distribution curve) or P=2P {X<C} (when C is located at the left end of the distribution curve) if X obeys a normal distribution and a t-distribution, the distribution curve is symmetric about the vertical axis, so its P value can be represented as P=P {|X|>C}; • after the P-value has been calculated, a test can be concluded by comparing a given significance level a to the P-value: rejecting the original hypothesis if a>P value; if a≤P value, the original assumption is accepted at significance level a. […]

[2] = test system: corn seeds; assay: Corn seed germination (seed vigor) after seed soaking; settings: for Average germination index / average germination potential / Average germination rate: corn seeds soaked 24 hours in 0.3 mM aqueous solution; for average germination potential: first 5 days; for Average germination rate: within 7 days
Method: as §1

[3] = test system: tobacco seeds; assay: Tobacco seed germination (seed vigor) after seed soaking; settings: for Average germination index / average germination potential / Average germination rate: tobacco seeds soaked 24 hours in 0.3 mM aqueous solution; for average germination potential: first 5 days; for Average germination rate: within 7 days
Method: as §1

[4] = test system: rice seeds; assay: Rice seed germination (seed vigor) after seed soaking
Method: as §1

[5] = test system: tomato seeds; assay: Tomato seed germination (seed vigor) after seed soaking; settings: for Average germination index / average germination potential / Average germination rate: tomato seeds soaked 24 hours in 0.3 mM aqueous solution; for average germination potential: first 5 days; for Average germination rate: within 7 days
Method: as §1

[6] = rice seeds soaked 24 hours in 0.3 mM aqueous solution
[7] = rice seeds soaked 24 hours in 0.3 mM aqueous solution, germinated in the first 5 days
[8] = rice seeds soaked 24 hours in 0.3 mM aqueous solution, germinated within 7 days, 3 parallel groups

| Compound | Average germination index [1] | average germination potential [1] | Average germination rate [1] | Average germination index [2] | average germination potential [2] | Average germination rate [2] | Average germination index [3] | average germination potential [3] | Average germination rate [3] | Average germination index [4, 6] | average germination potential [4, 7] | Average germination rate [4, 8] | Average germination index [5] | average germination potential [5] | Average germination rate [5] | other results |
| --- | --- | --- | --- | --- | --- | --- | --- | --- | --- | --- | --- | --- | --- | --- | --- | --- |
| C=C(OP(=O)(O)O)C(=O)O [PEP, phosphoenolpyruvate] | 6.367 | 24% | 24% | 14.2 ^ | 70% | 68% | 12.78 | 64% | 70% | 11.04 | 66% | 72% | 9.783 | 59% | 60% | germination condition and root growth versus water control (FIG. 4-5) ([1]; wheat seeds, 0.3 mM, day 7): the root growth of the wheat seeds can be accelerated; germination condition and root growth versus water control (FIG. 6-7) ([2]; corn seeds, 0.3 mM, day 7): the root growth of the corn seeds can be accelerated; germination condition and root system growth versus water control (FIG. 9) ([3]; tobacco seeds, 0.3 mM, day 7): the root system growth of the tobacco seeds can be accelerated; Average germination index ([4]; rice seeds, 0.09 mM aqueous solution): 8.43; average germination potential ([4]; rice seeds, 0.09 mM aqueous solution, first 5 days): 61%; Average germination rate ([4]; rice seeds, 0.09 mM aqueous solution, within 7 days): 63%; Average germination index ([4]; rice seeds, 0.2 mM aqueous solution): 11.04; average germination potential ([4]; rice seeds, 0.2 mM aqueous solution, first 5 days): 66%; Average germination rate ([4]; rice seeds, 0.2 mM aqueous solution, within 7 days): 72%; germination condition and root system / leaf growth versus water control (FIG. 1-3) ([4]; rice seeds, 0.3 mM, day 4 and day 7): significantly accelerate the growth of the root system and leaf of rice seeds; germination condition and root system growth versus water control (FIG. 8) ([5]; tomato seeds, 0.3 mM, day 7): the root system growth of the tomato seeds can be accelerated |
| C=C(OP(=O)([O-])O)C(=O)O.[K+] [PEP-K salt, potassium phosphoenolpyruvate] | 6.333 | 21% | 22% | 14.5 ^ | 70% | 68% | 11.83 | 64% | 66% | 10.76 | 64% | 68% | 10.73 | 64% | 65% | Average germination index ([4]; rice seeds, 0.5 mM aqueous solution): 10.76; average germination potential ([4]; rice seeds, 0.5 mM aqueous solution, first 5 days): 64%; Average germination rate ([4]; rice seeds, 0.5 mM aqueous solution, within 7 days): 68% |
| C=C(OP(=O)(O)O)C(=O)O.NC1CCCCC1 [PEP-cyclohexylammonium salt, cyclohexylammonium phosphoenolpyruvate] | 5.067 | 19% | 21% | 10.25 ^ | 60% | 58% | 10.53 | 65% | 68% | 10.82 | 66% | 70% | 10.23 | 65% | 66% | Average germination index ([4]; rice seeds, 1.1 mM aqueous solution): 9.82; average germination potential ([4]; rice seeds, 1.1 mM aqueous solution, first 5 days): 64%; Average germination rate ([4]; rice seeds, 1.1 mM aqueous solution, within 7 days): 62% |
